Key:
[1] = salt screen, XRPD of damp, dried and 40° C./75% RH stored samples (Salt Preparation Methods 1 and 2); format: physicochemical; set-up: key: A = amorphous; Evap. = isolated via evaporation
Method: (§1) Salt Preparation Method 1: Approximately 25 mg of Compound 1 (free base) was weighed out into 1.5 mL screw-cap vials and a stirrer bar was added. For solid counterions, the appropriate amount of acid (1.0 or 2.0 equiv.) was weighed into separate 1.5 mL screw-cap vials. 100 μL of the appropriate solvent system was added to both the Compound 1 and the solid counterions. Stock solutions of liquid counterions were prepared, such that 100 μL contained 1.0 or 2.0 equiv. of acid. See counterion and solvent lists in Table 60 and Table 61 respectively.
(§2) The samples were stirred at 40° C. for 5-10 min and then the acid solutions were added to Compound 1, rinsing out the transfer vial with a further 50 μL of solvent. […] Experiments were temperature cycled between 40° C. and 5° C. (1 h hold; 0.1° C./min ramp/cool) for ca. 24-68 h. Anti-solvent addition (ASA) was carried out to slurries at 5° C. then experiments were heated to 30° C. over 1 h. ASA was carried out at 30° C. or 40° C. where clear solutions or gums were observed.
(§3) Temperature cycling was then continued for ca. 16-69 h, followed by further ASA and temperature cycling if required. Material was isolated at 5° C. and analyzed damp by XRPD. All isolated material was dried under vacuum at ca. 40° C. for ca. 17-91 h then re-analyzed by XRPD. The XRPD plate was stored at 40° C./75% RH for 24-48 h and then samples re-analyzed. Solutions were stored uncapped at ambient temperature to evaporate. Any residual solids were analyzed by XRPD.
(§4) Salt Preparation Method 2: The general procedure adopted in preparing the potential salts is outlined below. A known mass of Compound 1 (free base) and a known volume of the appropriate solvent system were added to 20 mL scintillation vials. The required mol. equiv. of the appropriate counterions were added to the vials as solutions or slurries in the corresponding solvent system.
(§5) The experiments were stirred at 40° C. for ca. 1 h, and then temperature cycled between 40° C. and 5° C. with 0.1° C./min ramp and 1 h hold between each step. Anti-solvent additions and subsequent slurrying at 5° C. were employed in order to facilitate crystallization. […] The damp and dried solids were subsampled and analyzed by XRPD. Where applicable, the dried solids were stored at 40° C./75% RH for 24-48 h in order to improve the crystallinity and/or facilitate solid form conversion to the desired form.

[2] = as above; format: physicochemical; set-up: key to XRPD Analysis Damp/Dry: A = amorphous; Evap. = isolated via evaporation; settings: for XRPD Analysis Damp / XRPD Analysis Dry: Ethyl acetate; for XRPD Analysis Damp/Dry: (evap.)
Method: as §1, §2, §3, §4, §5

[3] = Citric acid, 1 equiv., Acetonitrile, AS tBME
[4] = Citric acid, 1 equiv., Ethanol, AS Heptane
[5] = Citric acid, 1 equiv., IPA:H2O (75:25% v/v), AS tBME
[6] = Citric acid, 1 equiv., MEK, AS Heptane
[7] = Citric acid, 1 equiv., THF, AS Heptane
[8] = Citric acid, 1 equiv., AS Heptane
[9] = Maleic acid, 1 equiv., Acetonitrile, AS tBME
[10] = Maleic acid, 1 equiv., Ethanol, AS Heptane
[11] = Maleic acid, 1 equiv., Ethyl acetate, AS Heptane
[12] = Maleic acid, 1 equiv., IPA:H2O (75:25% v/v), AS tBME
[13] = Maleic acid, 1 equiv., MEK, AS Heptane
[14] = Maleic acid, 1 equiv., THF, AS Heptane
[15] = Methanesulfonic acid, 2 equiv., Acetonitrile, AS tBME
[16] = Methanesulfonic acid, 2 equiv., Ethanol, AS Heptane
[17] = Methanesulfonic acid, 2 equiv., Ethyl acetate, AS Heptane
[18] = Methanesulfonic acid, 2 equiv., IPA:H2O (75:25% v/v), AS tBME
[19] = Methanesulfonic acid, 2 equiv., MEK, AS Heptane
[20] = Methanesulfonic acid, 2 equiv., THF, AS Heptane
[21] = L-Tartaric acid, 1 equiv., Acetonitrile, AS tBME
[22] = L-Tartaric acid, 1 equiv., Ethanol, AS Heptane
[23] = L-Tartaric acid, 1 equiv., IPA:H2O (75:25% v/v), AS tBME
[24] = L-Tartaric acid, 1 equiv., MEK, AS Heptane
[25] = L-Tartaric acid, 1 equiv., THF, AS Heptane
[26] = L-Tartaric acid, 1 equiv., AS Heptane
[27] = Methanesulfonic acid, 1 equiv., Acetonitrile, AS tBME
[28] = Methanesulfonic acid, 1 equiv., Ethanol, AS Heptane
[29] = Methanesulfonic acid, 1 equiv., Ethyl acetate, AS Heptane
[30] = Methanesulfonic acid, 1 equiv., IPA:H2O (75:25% v/v), AS tBME
[31] = Methanesulfonic acid, 1 equiv., MEK, AS Heptane
[32] = Methanesulfonic acid, 1 equiv., THF, AS Heptane

O=C(O)CC(O)(CC(=O)O)C(=O)O [Citric acid, 1 equiv.]
XRPD Analysis 40° C. 75% RH [1, 3]: A
XRPD Analysis Damp [1, 3]: A
XRPD Analysis Dry [1, 3]: A
XRPD Analysis 40° C. 75% RH [1, 4]: A
XRPD Analysis Damp [1, 4]: A
XRPD Analysis Dry [1, 4]: A
XRPD Analysis 40° C. 75% RH ([1]; Citric acid, 1 equiv., Ethyl acetate, AS Heptane): A
XRPD Analysis 40° C. 75% RH [1, 5]: A
XRPD Analysis Damp [1, 5]: A
XRPD Analysis Dry [1, 5]: A
XRPD Analysis 40° C. 75% RH [1, 6]: A
XRPD Analysis Damp [1, 6]: A
XRPD Analysis Dry [1, 6]: A
XRPD Analysis 40° C. 75% RH [1, 7]: A
XRPD Analysis Damp [1, 7]: A
XRPD Analysis Dry [1, 7]: A
XRPD Analysis Damp [2, 8]: PC, CI
XRPD Analysis Dry [2, 8]: PC, CI

O=C(O)/C=C\C(=O)O [Maleic acid, 1 equiv.]
XRPD Analysis 40° C. 75% RH [1, 9]: A
XRPD Analysis Damp [1, 9]: A
XRPD Analysis Dry [1, 9]: A
XRPD Analysis 40° C. 75% RH [1, 10]: A
XRPD Analysis Damp [1, 10]: A
XRPD Analysis Dry [1, 10]: A
XRPD Analysis 40° C. 75% RH [1, 11]: A
XRPD Analysis Damp [1, 11]: A
XRPD Analysis Dry [1, 11]: A
XRPD Analysis 40° C. 75% RH [1, 12]: A
XRPD Analysis 40° C. 75% RH [1, 13]: A
XRPD Analysis Damp [1, 13]: A
XRPD Analysis Dry [1, 13]: A
XRPD Analysis 40° C. 75% RH [1, 14]: A
XRPD Analysis Damp [1, 14]: A
XRPD Analysis Dry [1, 14]: A
XRPD Analysis Damp/Dry [2, 12]: A (evap.)

CS(=O)(=O)O [Methanesulfonic acid, 2 equiv.]
XRPD Analysis 40° C. 75% RH [1, 15]: A
XRPD Analysis Damp [1, 15]: A
XRPD Analysis Dry [1, 15]: A
XRPD Analysis 40° C. 75% RH [1, 16]: A
XRPD Analysis Damp [1, 16]: A
XRPD Analysis Dry [1, 16]: A
XRPD Analysis 40° C. 75% RH [1, 17]: A
XRPD Analysis Damp [1, 17]: A
XRPD Analysis Dry [1, 17]: A
XRPD Analysis 40° C. 75% RH [1, 18]: A
XRPD Analysis 40° C. 75% RH [1, 19]: A
XRPD Analysis Damp [1, 19]: A
XRPD Analysis Dry [1, 19]: A
XRPD Analysis 40° C. 75% RH [1, 20]: A
XRPD Analysis Damp [1, 20]: A
XRPD Analysis Dry [1, 20]: A
XRPD Analysis Damp/Dry [2, 18]: A (evap.)

O=C(O)C(O)C(O)C(=O)O [L-Tartaric acid, 1 equiv.]
XRPD Analysis 40° C. 75% RH [1, 21]: A
XRPD Analysis Damp [1, 21]: A
XRPD Analysis Dry [1, 21]: A
XRPD Analysis 40° C. 75% RH [1, 22]: A
XRPD Analysis Damp [1, 22]: A
XRPD Analysis Dry [1, 22]: A
XRPD Analysis 40° C. 75% RH ([1]; L-Tartaric acid, 1 equiv., Ethyl acetate, AS Heptane): A
XRPD Analysis 40° C. 75% RH [1, 23]: A
XRPD Analysis Damp [1, 23]: A
XRPD Analysis Dry [1, 23]: A
XRPD Analysis 40° C. 75% RH [1, 24]: A
XRPD Analysis Damp [1, 24]: A
XRPD Analysis Dry [1, 24]: A
XRPD Analysis 40° C. 75% RH [1, 25]: A
XRPD Analysis Damp [1, 25]: A
XRPD Analysis Dry [1, 25]: A
XRPD Analysis Damp [2, 26]: PC, CI
XRPD Analysis Dry [2, 26]: PC, CI

CS(=O)(=O)O [Methanesulfonic acid, 1 equiv.]
XRPD Analysis 40° C. 75% RH [1, 27]: A
XRPD Analysis Damp [1, 27]: A
XRPD Analysis Dry [1, 27]: A
XRPD Analysis 40° C. 75% RH [1, 28]: A
XRPD Analysis 40° C. 75% RH [1, 29]: A
XRPD Analysis Damp [1, 29]: A
XRPD Analysis Dry [1, 29]: A
XRPD Analysis 40° C. 75% RH [1, 30]: A
XRPD Analysis 40° C. 75% RH [1, 31]: A
XRPD Analysis Damp [1, 31]: A
XRPD Analysis Dry [1, 31]: A
XRPD Analysis 40° C. 75% RH [1, 32]: A
XRPD Analysis Damp [1, 32]: A
XRPD Analysis Dry [1, 32]: A
XRPD Analysis Damp/Dry [2, 28]: A (evap.)
XRPD Analysis Damp/Dry [2, 30]: A (evap.)
